Assay: refractive index (other wavelength) (dimensionless); xn = mol fraction of the nth substance listed
Details: 308.15 K, 95.99 kPa, Liquid, Standard Abbe refractometry

OCCOCCOCCO [triethylene glycol] + O
refractive index
Details	Wavelength=435.8 nm	Wavelength=486.1 nm	Wavelength=546.1 nm	Wavelength=587.6 nm	Wavelength=589.3 nm	Wavelength=632.8 nm
x2 = 0	–	1.45629	1.45285	1.45106	1.45099	1.44945
x2 = 0.1056	–	1.45496	1.45153	1.44974	1.44967	1.44814
x2 = 0.2069	1.4575	1.45334	1.44996	1.44816	1.44809	1.44655
x2 = 0.3104	1.45498	1.45085	1.44745	1.44566	1.44561	1.44407
x2 = 0.4844	1.45024	1.44616	1.44282	1.44105	1.44098	1.43947
x2 = 0.5016	1.44927	1.4452	1.44188	1.44011	1.44065	1.43853
x2 = 0.5952	1.44251	1.43858	1.43529	1.43357	1.4335	1.43202
x2 = 0.6016	1.44288	1.43766	1.43458	1.43283	1.43274	1.43225
x2 = 0.6788	1.43608	1.43224	1.42901	1.42731	1.42725	1.42577
x2 = 0.7835	1.42735	1.42362	1.42052	1.41887	1.4188	1.41735
x2 = 0.8184	1.42147	1.41778	1.41468	1.41303	1.41297	1.41153
x2 = 0.8473	1.41506	1.41139	1.40833	1.40675	1.40666	1.40524
x2 = 0.8719	1.40816	1.40459	1.40157	1.39999	1.39993	1.39853
x2 = 0.8926	1.40046	1.39696	1.39401	1.39245	1.39239	1.39102
x2 = 0.9106	1.3951	1.39162	1.38868	1.38711	1.38705	1.38567
x2 = 0.9254	1.38515	1.38181	1.37898	1.37744	1.37739	1.37602
x2 = 0.9303	1.38605	1.38268	1.37985	1.37833	1.37828	1.37692
x2 = 0.9391	1.38243	1.37908	1.37624	1.37471	1.37465	–
x2 = 0.951	1.37585	1.37256	1.36977	1.36826	1.36821	–
x2 = 0.9599	1.3695	1.36628	1.36351	1.36202	1.36197	–
x2 = 0.9708	1.36175	1.35858	1.35587	1.35442	1.35436	–
x2 = 0.979	1.3569	1.35382	1.35111	1.34968	1.34963	–
x2 = 0.9867	1.35054	1.34746	1.34481	1.34338	1.34332	–
x2 = 0.9936	1.34444	1.34138	1.33876	1.33735	1.3373	–
